Assay results as given in patent US9994554B2, “Barbiturate and thiobarbiturate compounds for use in cancer therapy” (NUHOPE, LLC, priority 2011, dated 2018).

Tested on: U87-MG cells
Experiment: U87-MG resazurin cell assay (Example 13)
Assay type: cell-based
Conditions: Homo sapiens, U-87 MG; U87-MG, 5 days (120 hrs) incubation; read-out: Activity Score (Mean pXC50) (converted)
Experimental: U87-MG cells were obtained from the ATCC, LGC Standards (#HTB-14). The cells were screened for mycoplasma (Mycoplasma Experience) and maintained in Biowhittaker Alpha MEM (Lonza #BE02-002F+10% dialyzed US FBS serum (Invitrogen #26400-044), 1% Penstrep (Gibco #15140-122).
Compounds to be tested were transferred into column 1 of a hit plate (96-well PPV Greiner #651201). 20 ul of DMSO was added to columns 2 to 11. The top concentration was 10 mM.
Serial dilution, ten-point one in three dilution curves were created using Perkin Elmer Janus (20 ul clear Robopack disposable tips #6000677 used).
2 ul of each of the compounds was transferred by pre-dispensing into black, clear bottom 96-well CellBIND Corning plates (Fisher #DPS-184-030R) using Platemate 2×2 (ThermoFisher Darts #5506).
200 μl of U87-MG cells were added to columns 1 to 11 at a density of 1000 cells per ml, and media only was dispensed into control column 12 using Wellmate (Small bore tubing set #201-30002).
After 5 days (120 hrs) incubation at 37° C. under 5% CO2 in a humidified incubator, the assay was “stopped” by addition of Resazurin sodium salt at 0.5 mM final concentration (Sigma R7017). The plates were incubated for a further 4 hrs before resorufin readout was taken from a Perkin Elmer EnVision, 550 nm excitation (photo550, Barcode 312), 580 nm emission (M580, Barcode 233), Top Mirror BODIPY (D555, Barcode 405).

SMILES | IC50 [µM]
O=C1NC(=O)C(=CC2CCCCC2)C(=O)N1 [DDD00175825] | > 100
O=C1NC(=O)C(=Cc2ccccc2F)C(=O)N1 [DDD00175821] | > 100
CN1C(=O)C(=Cc2c[nH]c3ccccc23)C(=O)N(C)C1=O [DDD00175791] | > 100
O=C1NC(=O)C(=Cc2cccc(Cl)c2)C(=O)N1 [DDD00175823] | > 100
CN1C(=O)C(=CC2=Cc3cc(Cl)ccc3OC2)C(=O)N(C)C1=O [DDD00175830] | 31.6 to 100
O=C1NC(=O)C(=C/C=C/c2cccc(F)c2)C(=O)N1 [DDD00197332] | 1 to 10
CN1C(=O)C(=C/C=C/c2ccc(N(C)C)cc2)C(=O)N(C)C1=O [DDD00175795] | 31.6 to 100
CCN1C(=O)NC(=O)/C(=C\C=C\c2ccccc2N(C)C)C1=O [DDD00197344] | 1 to 10
CCN1C(=O)C(=C/C=C/c2cccc(Cl)c2)C(=O)N(CC)C1=S [DDD00175293] | 31.6 to 100
N#Cc1ccc(/C=C/C=C2C(=O)NC(=O)NC2=O)cc1 [DDD00175802] | 10 to 31.6
O=C1NC(=O)C(=Cc2cccnc2)C(=O)N1 [DDD00175833] | > 100
CCN1C(=O)C(=C/C=C/c2ccc(Cl)cc2)C(=O)N(CC)C1=S [DDD00175281] | 31.6 to 100
CN1C(=O)C(=C/C=C/c2cccc(N(C)C)c2)C(=O)N(C)C1=O [DDD00197346] | 1 to 10
Cc1ccccc1/C=C/C=C1C(=O)NC(=S)NC1=O [DDD00197329] | 1 to 10
CCN1C(=O)/C(=C\C=C\c2ccccc2)C(=O)N(C2CCOCC2)C1=O [DDD00175789] | 1 to 10
O=C1NC(=O)C(=CC2=Cc3ccccc3OC2)C(=O)N1 [DDD00175835] | 31.6 to 100
COc1ccc2c(c1)OCC(C=C1C(=O)N(C)C(=O)N(C)C1=O)=C2 [DDD00175826] | 31.6 to 100
CCN1C(=O)C(=C/C=C/c2ccccc2C)C(=O)N(CC)C1=S [DDD00175816] | 10 to 31.6
CCN1C(=O)NC(=O)/C(=C\C=C\c2cccc(Cl)c2)C1=O [DDD00175297] | ≤ 1
CCN1C(=O)NC(=O)/C(=C\C=C\c2ccc(F)cc2)C1=O [DDD00175841] | 1 to 10
Cc1ccccc1/C=C/C=C1C(=O)NC(=O)NC1=O [DDD00175809] | 1 to 10
O=C1NC(=O)C(=Cc2ccncc2)C(=O)N1 [DDD00175820] | > 100

SMILES | IC50 [µM]
CCN1C(=O)NC(=O)/C(=C\C=C\c2ccccc2OC)C1=O [DDD00175817] | 1 to 10
O=C1NC(=O)C(=Cc2cccc(F)c2)C(=O)N1 [DDD00175822] | > 100
CCN1C(=O)NC(=O)/C(=C\C=C\c2ccc(C)cc2)C1=O [DDD00175801] | 1 to 10
O=C1NC(=O)C(Cc2ccccc2)C(=O)N1 [DDD00175824] | > 100
Cn1cc(/C=C/c2ccccc2)c(=O)n(C)c1=O [DDD00197671] | > 100
CCN1C(=O)NC(=O)/C(=C\C=C\c2cccc(F)c2)C1=O [DDD00197347] | 1 to 10
COc1ccccc1/C=C/C=C1C(=O)NC(=S)NC1=O [DDD00175819] | 1 to 10
CCN1C(=O)C(=C/C=C/c2ccc(F)cc2)C(=O)N(CC)C1=S [DDD00175839] | 31.6 to 100
CCN1C(=O)NC(=O)/C(=C2\C=C(c3ccccc3)CCC2)C1=O [DDD00175332] | > 100
CN1C(=O)C(=C/C=C/c2c(F)cccc2F)C(=O)N(C)C1=O [DDD00197343] | 1 to 10
Cc1ccc(/C=C/C=C2C(=O)NC(=O)NC2=O)cc1 [DDD00175796] | 1 to 10
N#Cc1ccc(/C=C/C=C2C(=O)NC(=S)NC2=O)cc1 [DDD00175806] | 31.6 to 100
CCN1C(=O)/C(=C/C=C/c2ccc(F)cc2)C(=O)NC1=S [DDD00175840] | 31.6 to 100
COc1ccccc1/C=C/C=C1C(=O)N(C)C(=O)N(C)C1=O [DDD00175818] | 1 to 10
COc1ccc(/C=C/C=C2C(=O)NC(=S)NC2=O)cc1 [DDD00175805] | 1 to 10
CCN1C(=O)NC(=O)/C(=C\C=C\c2ccccc2F)C1=O [DDD00175810] | 1 to 10
CCN1C(=O)C(=C/C=C/c2ccc(N(C)C)cc2)C(=O)N(CC)C1=S [DDD00197342] | 31.6 to 100
CCN1C(=O)C(=C/C=C/c2ccccc2OC)C(=O)N(CC)C1=S [DDD00197350] | 10 to 31.6
COc1cccc(C=C2C(=O)NC(=O)NC2=O)c1 [DDD00175827] | > 100
CCN1C(=O)NC(=O)/C(=C\C=C\c2ccc(N(C)C)cc2)C1=O [DDD00175804] | 1 to 10
CCN1C(=O)C(=C/C=C/c2ccc(C)cc2)C(=O)N(CC)C1=S [DDD00175807] | 31.6 to 100
CCN1C(=O)C(=C/C=C/c2c(F)cccc2F)C(=O)N(CC)C1=S [DDD00197345] | 31.6 to 100

SMILES | IC50 [µM]
CN(C)c1ccccc1/C=C/C=C1C(=O)NC(=O)NC1=O [DDD00197357] | 1 to 10
O=C1NC(=O)C(=Cc2ccccc2)C(=O)N1 [DDD00175828] | > 100
O=C1NC(=O)C(=C/C=C/c2ccccc2F)C(=O)N1 [DDD00175808] | 1 to 10
CCN1C(=O)C(=C/C=C/c2ccc(OC)cc2)C(=O)N(CC)C1=S [DDD00175800] | 31.6 to 100
CN1C(=O)C(=C/C=C/C2CCCCC2)C(=O)N(C)C1=O [DDD00197709] | 10 to 31.6
CN1C(=O)C(=Cc2ccco2)C(=O)N(C)C1=O [DDD00175280] | > 100
CCN1C(=O)C(=C2C=C(c3ccccc3)CCC2)C(=O)N(CC)C1=S [DDD00175338] | > 100
Cc1ccc(/C=C/C=C2C(=O)NC(=S)NC2=O)cc1 [DDD00175798] | 1 to 10
CCN1C(=O)/C(=C/C=C/c2ccccc2C)C(=O)NC1=S [DDD00197330] | 1 to 10
CCN1C(=O)NC(=O)/C(=C\C=C\c2ccc(OC)cc2)C1=O [DDD00175797] | 1 to 10
O=C1NC(=O)C(=Cc2ccc(F)cc2)C(=O)N1 [DDD00175831] | > 100
COc1ccc(/C=C/C=C2C(=O)N(C)C(=O)N(C)C2=O)cc1 [DDD00175794] | 1 to 10
N#Cc1ccccc1/C=C/C=C1C(=O)NC(=O)NC1=O [DDD00197348] | 1 to 10
CCN1C(=O)NC(=O)/C(=C\C=C\c2cccc(N(C)C)c2)C1=O [DDD00197341] | 1 to 10
O=C1NC(=O)C(=C/C=C/c2ccc(Cl)cc2Cl)C(=O)N1 [DDD00175271] | 1 to 10
O=C1NC(=O)C(=C/C=C/c2c(F)cccc2F)C(=O)N1 [DDD00197331] | 1 to 10
CCN1C(=O)/C(=C/C=C/c2ccccc2OC)C(=O)NC1=S [DDD00197355] | 1 to 10
O=C1NC(=O)C(=C/C=C/c2ccccc2Cl)C(=O)N1 [DDD00175339] | 1 to 10
CCN1C(=O)/C(=C/C=C/c2cccc(F)c2)C(=O)NC1=S [DDD00197354] | 10 to 31.6
O=C1NC(=O)C(=C/C=C/c2ccc(F)cc2)C(=O)N1 [DDD00175842] | 1 to 10
CN(C)c1ccc(/C=C/C=C2C(=O)NC(=O)NC2=O)cc1 [DDD00175803] | 10 to 31.6
CN1C(=O)C(=C/C=C/c2ccccc2)C(=O)N(C)C1=O [DDD00175285] | 1 to 10

SMILES | IC50 [µM]
COc1ccc(C=C2C(=O)NC(=O)NC2=O)cc1 [DDD00175838] | > 100
O=C1NC(=S)NC(=O)C1=C/C=C/c1cccc(F)c1 [DDD00197339] | 1 to 10
O=C1NC(=O)C(=Cc2c[nH]c3ccccc23)C(=O)N1 [DDD00175790] | > 100
O=C1NC(=O)C(=C/C=C/c2cccc(Cl)c2)C(=O)N1 [DDD00175302] | ≤ 1
O=C1NC(=O)C(=C/C=C/c2ccc(Cl)cc2)C(=O)N1 [DDD00175286] | ≤ 1
COc1ccccc1/C=C/C=C1C(=O)NC(=O)NC1=O [DDD00175832] | 1 to 10
O=C1NC(=O)C(=C/C=C/c2cccnc2)C(=O)N1 [DDD00197336] | 10 to 31.6
CN1C(=O)C(=C/C=C/c2ccccc2F)C(=O)N(C)C1=O [DDD00175811] | 1 to 10
CN1C(=O)C(C(C)(O)/C=C/c2ccccc2)C(=O)N(C)C1=O (stereo not shown) [DDD00197352] | > 100
O=C1NC(=O)C(=Cc2ccccn2)C(=O)N1 [DDD00175837] | > 100
CN1C(=O)C(=C/C=C/c2ccccc2N(C)C)C(=O)N(C)C1=O [DDD00197338] | 1 to 10
COc1ccc(/C=C/C=C2C(=O)NC(=O)NC2=O)cc1 [DDD00175799] | 1 to 10
CN(C)c1ccccc1/C=C/C=C1C(=O)NC(=S)NC1=O [DDD00197337] | 10 to 31.6
CCN1C(=O)/C(=C\C=C\c2ccco2)C(=O)N(C2CCOCC2)C1=O [DDD00175792] | 10 to 31.6
CCN1C(=O)NC(=O)/C(=C\C=C\c2ccccc2C)C1=O [DDD00175813] | 1 to 10
O=C1NC(=O)C(=C/C=C/c2ccccc2[N+](=O)[O-])C(=O)N1 [DDD00175834] | 1 to 10
O=C1NC(=O)C(=Cc2ccc(Cl)c(Cl)c2)C(=O)N1 [DDD00175836] | > 100
CN1C(=O)C(=C/C=C/c2cccc(F)c2)C(=O)N(C)C1=O [DDD00197351] | 1 to 10
O=C1NC(=S)NC(=O)C1=C/C=C/c1ccccc1F [DDD00197349] | 1 to 10
